Numbers after ± are expanded uncertainties.
Experiment: cn = amount concentration of the nth substance listed, in mol/dm3
Conditions: 101 kPa, Liquid, Advanced Conductivity Orion 162A

CCCC[N+](CCCC)(CCCC)CCCC.O=C([O-])C(F)(F)C(F)(F)C(F)(F)C(F)(F)C(F)(F)C(F)(F)C(F)(F)F [tetrabutylammonium perfluorooctanoate] + O
Conditions | electrical conductivity [S/m]
283.1 K, c1 = 0.000329 | 0.00105 ± 1e-05
283.1 K, c1 = 0.000649 | 0.0019 ± 1e-05
283.1 K, c1 = 0.000962 | 0.00271 ± 1e-05
283.1 K, c1 = 0.001266 | 0.00351 ± 1e-05
283.1 K, c1 = 0.001562 | 0.00431 ± 1e-05
283.1 K, c1 = 0.001852 | 0.00505 ± 1e-05
283.1 K, c1 = 0.002134 | 0.00579 ± 1e-05
283.1 K, c1 = 0.00241 | 0.00643 ± 1e-05
283.1 K, c1 = 0.002678 | 0.00707 ± 2e-05
283.1 K, c1 = 0.002941 | 0.00749 ± 2e-05
283.1 K, c1 = 0.003198 | 0.00762 ± 2e-05
283.1 K, c1 = 0.003448 | 0.0077 ± 2e-05
283.1 K, c1 = 0.003814 | 0.00782 ± 2e-05
283.1 K, c1 = 0.004167 | 0.00793 ± 2e-05
283.1 K, c1 = 0.004508 | 0.00803 ± 2e-05
283.1 K, c1 = 0.004839 | 0.00812 ± 2e-05
283.1 K, c1 = 0.005159 | 0.00821 ± 2e-05
283.1 K, c1 = 0.005469 | 0.00831 ± 2e-05
288.15 K, c1 = 0.000247 | 0.00099 ± 1e-05
288.15 K, c1 = 0.000488 | 0.00175 ± 1e-05
288.15 K, c1 = 0.000723 | 0.00249 ± 1e-05
288.15 K, c1 = 0.000952 | 0.0032 ± 1e-05
288.15 K, c1 = 0.001176 | 0.00389 ± 1e-05
288.15 K, c1 = 0.001395 | 0.00457 ± 1e-05
288.15 K, c1 = 0.001609 | 0.00521 ± 1e-05
288.15 K, c1 = 0.001818 | 0.00582 ± 1e-05
288.15 K, c1 = 0.00202 | 0.00641 ± 1e-05
288.15 K, c1 = 0.002222 | 0.00704 ± 2e-05
288.15 K, c1 = 0.002418 | 0.00756 ± 2e-05
288.15 K, c1 = 0.002609 | 0.00796 ± 2e-05
288.15 K, c1 = 0.002796 | 0.00811 ± 2e-05
288.15 K, c1 = 0.002979 | 0.00819 ± 2e-05
288.15 K, c1 = 0.003246 | 0.0083 ± 2e-05
288.15 K, c1 = 0.003505 | 0.00839 ± 2e-05
288.15 K, c1 = 0.003838 | 0.00852 ± 2e-05
288.15 K, c1 = 0.004158 | 0.00863 ± 2e-05
288.15 K, c1 = 0.004466 | 0.00873 ± 2e-05
288.15 K, c1 = 0.004906 | 0.00888 ± 2e-05
288.15 K, c1 = 0.005321 | 0.00902 ± 2e-05
293.15 K, c1 = 0.000263 | 0.00116 ± 1e-05
293.15 K, c1 = 0.000519 | 0.0021 ± 1e-05
293.15 K, c1 = 0.000769 | 0.00299 ± 1e-05
293.15 K, c1 = 0.001013 | 0.00386 ± 1e-05
293.15 K, c1 = 0.00125 | 0.00471 ± 1e-05
293.15 K, c1 = 0.001481 | 0.00552 ± 1e-05
293.15 K, c1 = 0.001707 | 0.00626 ± 1e-05
293.15 K, c1 = 0.001928 | 0.00699 ± 2e-05
293.15 K, c1 = 0.002143 | 0.0077 ± 2e-05
293.15 K, c1 = 0.002353 | 0.00829 ± 2e-05
293.15 K, c1 = 0.002558 | 0.0085 ± 2e-05
293.15 K, c1 = 0.002759 | 0.00862 ± 2e-05
293.15 K, c1 = 0.002954 | 0.00871 ± 2e-05
293.15 K, c1 = 0.00324 | 0.00884 ± 2e-05
293.15 K, c1 = 0.003516 | 0.00895 ± 2e-05
293.15 K, c1 = 0.003784 | 0.00907 ± 2e-05
293.15 K, c1 = 0.004042 | 0.0092 ± 2e-05
293.15 K, c1 = 0.004375 | 0.00931 ± 2e-05
293.15 K, c1 = 0.004694 | 0.00944 ± 2e-05
293.15 K, c1 = 0.005 | 0.00956 ± 2e-05
298.15 K, c1 = 0.000248 | 0.00124 ± 1e-05
298.15 K, c1 = 0.00049 | 0.00229 ± 1e-05
298.15 K, c1 = 0.000728 | 0.0033 ± 1e-05
298.15 K, c1 = 0.000962 | 0.0043 ± 1e-05
298.15 K, c1 = 0.00119 | 0.00528 ± 1e-05
298.15 K, c1 = 0.001415 | 0.00618 ± 1e-05
298.15 K, c1 = 0.001636 | 0.00703 ± 2e-05
298.15 K, c1 = 0.001852 | 0.00789 ± 2e-05
298.15 K, c1 = 0.002064 | 0.00869 ± 2e-05
298.15 K, c1 = 0.002273 | 0.00907 ± 2e-05
298.15 K, c1 = 0.002477 | 0.00916 ± 2e-05
298.15 K, c1 = 0.002728 | 0.00927 ± 2e-05
298.15 K, c1 = 0.003094 | 0.00944 ± 2e-05
298.15 K, c1 = 0.003448 | 0.00959 ± 2e-05
298.15 K, c1 = 0.003814 | 0.00976 ± 2e-05
298.15 K, c1 = 0.004167 | 0.00992 ± 2e-05
298.15 K, c1 = 0.004592 | 0.01011 ± 2e-05
298.15 K, c1 = 0.005 | 0.01028 ± 2e-05
303.15 K, c1 = 0.000263 | 0.00148 ± 1e-05
303.15 K, c1 = 0.000519 | 0.00267 ± 1e-05
303.15 K, c1 = 0.000769 | 0.00383 ± 1e-05
303.15 K, c1 = 0.001013 | 0.00497 ± 1e-05
303.15 K, c1 = 0.00125 | 0.0061 ± 1e-05
303.15 K, c1 = 0.001481 | 0.00717 ± 2e-05
303.15 K, c1 = 0.001707 | 0.00814 ± 2e-05
303.15 K, c1 = 0.001928 | 0.00909 ± 2e-05
303.15 K, c1 = 0.002143 | 0.00964 ± 2e-05
303.15 K, c1 = 0.002353 | 0.00979 ± 2e-05
303.15 K, c1 = 0.002558 | 0.00989 ± 2e-05
303.15 K, c1 = 0.002759 | 0.00998 ± 2e-05
303.15 K, c1 = 0.002954 | 0.01005 ± 2e-05
303.15 K, c1 = 0.00324 | 0.01016 ± 2e-05
303.15 K, c1 = 0.003516 | 0.01026 ± 2e-05
303.15 K, c1 = 0.003784 | 0.01035 ± 2e-05
303.15 K, c1 = 0.004042 | 0.01044 ± 2e-05
303.15 K, c1 = 0.004375 | 0.01055 ± 2e-05
303.15 K, c1 = 0.004694 | 0.01065 ± 2e-05
308.15 K, c1 = 0.000309 | 0.00189 ± 1e-05
308.15 K, c1 = 0.00061 | 0.0034 ± 1e-05
308.15 K, c1 = 0.000904 | 0.00484 ± 1e-05
308.15 K, c1 = 0.00119 | 0.00633 ± 1e-05
308.15 K, c1 = 0.00147 | 0.00774 ± 2e-05
308.15 K, c1 = 0.001744 | 0.00909 ± 2e-05
308.15 K, c1 = 0.002011 | 0.01001 ± 2e-05
308.15 K, c1 = 0.002273 | 0.01017 ± 2e-05
308.15 K, c1 = 0.002423 | 0.01022 ± 2e-05
308.15 K, c1 = 0.002578 | 0.01026 ± 2e-05
308.15 K, c1 = 0.002728 | 0.0103 ± 2e-05
308.15 K, c1 = 0.002876 | 0.01034 ± 2e-05

From the NIST ThermoML archive (doi:10.1021/je900916e)
